Publication PMC2799458, “Diastereomers of the Brominated Flame Retardant 1,2-Dibromo-4-(1,2 dibromoethyl)cyclohexane Induce Androgen Receptor Activation in the HepG2 Hepatocellular Carcinoma Cell Line and the LNCaP Prostate Cancer Cell Line” (Environmental Health Perspectives, 2009)
Where two headings read alike, the source gives them in different places. Marks after values point to notes of the source that are not given here.

Assays:
hAR = target: T1, hAR (Homo sapiens, UniProt P10275); assay: AR activation, slp-ARE-Luc reporter in HepG2 cells transfected with pCMVhAR; assay type: cell-based
T1 construct: expressed in transfected cells; host or cells: HepG2
T1 sequence (P10275 1-920): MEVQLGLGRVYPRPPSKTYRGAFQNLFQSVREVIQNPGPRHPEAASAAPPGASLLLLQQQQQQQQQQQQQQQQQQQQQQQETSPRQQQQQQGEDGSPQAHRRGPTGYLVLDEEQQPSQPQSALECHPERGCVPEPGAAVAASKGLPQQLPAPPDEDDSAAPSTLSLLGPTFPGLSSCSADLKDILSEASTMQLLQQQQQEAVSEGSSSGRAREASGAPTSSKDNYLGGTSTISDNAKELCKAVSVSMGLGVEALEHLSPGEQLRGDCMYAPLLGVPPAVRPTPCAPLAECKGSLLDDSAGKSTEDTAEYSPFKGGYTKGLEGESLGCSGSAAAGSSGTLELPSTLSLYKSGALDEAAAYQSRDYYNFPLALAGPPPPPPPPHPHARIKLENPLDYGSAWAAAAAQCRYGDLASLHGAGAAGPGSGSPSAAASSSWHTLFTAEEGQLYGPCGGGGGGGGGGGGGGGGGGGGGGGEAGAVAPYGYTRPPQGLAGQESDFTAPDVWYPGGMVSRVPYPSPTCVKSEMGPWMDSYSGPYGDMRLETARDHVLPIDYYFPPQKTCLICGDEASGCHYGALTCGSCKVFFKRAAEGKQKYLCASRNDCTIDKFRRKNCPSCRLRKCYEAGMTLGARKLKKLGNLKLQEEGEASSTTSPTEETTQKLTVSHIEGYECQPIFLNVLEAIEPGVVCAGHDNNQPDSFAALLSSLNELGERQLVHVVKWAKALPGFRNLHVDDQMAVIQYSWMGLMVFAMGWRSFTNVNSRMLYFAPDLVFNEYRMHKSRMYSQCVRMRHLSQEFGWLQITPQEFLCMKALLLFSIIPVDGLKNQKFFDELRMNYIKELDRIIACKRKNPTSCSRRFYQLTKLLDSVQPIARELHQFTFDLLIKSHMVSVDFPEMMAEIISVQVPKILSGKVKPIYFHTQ

AR-LBD = target: T2, AR-LBD (Rattus norvegicus, UniProt P15207); assay: PolarScreen AR competition assay (polarization fluorometry); assay type: binding
T2 construct: purchased PanVera, Madison, WI, USA
T2 sequence (P15207 651-882 limits assumed): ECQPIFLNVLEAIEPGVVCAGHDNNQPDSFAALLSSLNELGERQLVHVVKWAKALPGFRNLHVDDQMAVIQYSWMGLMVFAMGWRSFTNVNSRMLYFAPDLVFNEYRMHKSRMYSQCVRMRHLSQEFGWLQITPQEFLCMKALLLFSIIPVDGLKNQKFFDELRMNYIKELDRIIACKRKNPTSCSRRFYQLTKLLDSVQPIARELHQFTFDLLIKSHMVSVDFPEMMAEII
Procedure: The final concentration of AR LBD was 50 nM. […] All analyses were performed in triplicate.

[1] = system: human androgen receptor (hAR); design: method as in Araki et al. 2005; settings: at high concentrations; ref Araki et al. 2005; cited from earlier work
ER [2] = system: ER; design: method as in Pillon et al. (2005); settings: natural ligand; ref Pillon et al. (2005); cited from earlier work
ER [3] = system: ER; design: method as in Blair et al. (2000); settings: natural ligand; ref Blair et al. (2000); cited from earlier work
ER [4] = settings: 17β-estradiol set to 100%, cited from earlier work
AR [5] = settings: DHT set to 100%, cited from earlier work
ER [6] = settings: 17β-estradiol set to 100%, cited from earlier work; remark: listed apart in the source
HepG2 cells = settings: 21 hr after addition, ref Simon and Mueller 2006; cited from earlier work
AR [7] = settings: read-out: EC50 AR; natural ligand; ref Xu et al. (2005); cited from earlier work
AR [8] = settings: read-out: IC50 AR; natural ligand; ref Cabeza et al. (2004); cited from earlier work
AhR [9] = settings: TCDD set to 100%, cited from earlier work
[10] = system: L5178Y tk^+/tk^− mouse lymphoma-cell; design: method as in McGregor et al. 1991; settings: ref McGregor et al. 1991; cited from earlier work
AR [11] = system: AR; design: method as in Viswanath et al. (2008); settings: DHT set to 100%; ref Viswanath et al. (2008); cited from earlier work
AhR [12] = assay: Relative activation factor for AhR (Table 4); assay type: cell-based, human; settings: TCDD as reference ligand set to 100%
Description: Table 4 RBA of ligands for human receptors. | column: AhR / RAF

AhR [13] = system: AhR; design: method as in Westerink et al. (2008); settings: ref Westerink et al. (2008); cited from earlier work
AhR [14] = assay: Relative binding affinity for AhR (Table 4); design: species or system human; settings: TCDD as reference ligand set to 100%
Description: Table 4 RBA of ligands for human receptors. | column: AhR / RBA

AhR [15] = system: AhR; design: method as in Bonefeld-Jørgensen et al. (2007); settings: ref Bonefeld-Jørgensen et al. (2007); cited from earlier work
PR [16] = system: PR; design: method as in Lenasi and Breskvar (2004); settings: natural ligand; ref Lenasi and Breskvar (2004); cited from earlier work
PR [17] = system: PR; design: method as in Viswanath et al. (2008); settings: natural ligand; ref Viswanath et al. (2008); cited from earlier work
[18] = ref Bonefeld-Jørgensen et al. (2007)

## BrC[C@@H](Br)[C@H]1CC[C@@H](Br)[C@H](Br)C1 (mixture of isomers) [TBECH-β, rac-(1R,2R)-1,2-dibromo-(4S)-4-[(1S)1,2-dibromoethyl]cyclohexane]
hAR
  EC50: 294 nM
AR-LBD
  IC50: 655 nM

## CC(C)(C)c1ccc2c(c1)C(=O)c1ccccc1C2=O [2-tert-butylanthraquinone]
[1]
  agonism to hAR: weak agonists

## ClC1=C(Cl)C2(Cl)C3C4C=CC(C4)C3C1(Cl)C2(Cl)Cl (centres unmarked) [Aldrin]
ER [4]; ref Sonneveld et al. (2005)
  ER RBA: 0.0029 ^h %
AR [5]; ref Fang et al. (2003)
  AR RBA: 0.007 ^f %

## CC(C)(c1ccc(O)cc1)c1ccc(O)cc1 [Bisphenol A]
ER [4]; ref Blair et al. (2000)
  ER RBA: 0.0077 ^a %
ER [6]; [18]
  ER RAF: 0.0183 ^d %
AR [5]; ref Scippo et al. (2004)
  AR RBA: 0.0018 ^c %

## C[C@]12CCC(=O)C[C@@H]1CC[C@@H]1[C@@H]2CC[C@]2(C)[C@@H](O)CC[C@@H]12 [DHT, dihydrotestosterone]
HepG2 cells
  reduction of hormone by metabolism: 46%
AR [7]
  EC50: […]
AR [8]
  IC50: […]

## ClC1=C(Cl)[C@]2(Cl)[C@@H]3[C@@H]4C[C@@H]([C@H]5O[C@@H]45)[C@@H]3[C@@]1(Cl)C2(Cl)Cl [Dieldrin]
ER [4]; ref Sonneveld et al. (2005)
  ER RBA: 0.0019 ^h %
ER [6]; ref Pillon et al. (2005)
  ER RAF: 0.00001 ^b %

## Clc1ccc(-c2ccc(Cl)c(Cl)c2)cc1Cl [PCB 77, 3,3′,4,4′-tetrachlorobiphenyl]
ER [4]; ref Blair et al. (2000)
  ER RBA: < 0.0003 ^a %
AhR [9]; ref Zeiger et al. (2001)
  AhR RAF: 0.025 ^i %

## BrCC(Br)C1CCC(Br)C(Br)C1 (centres unmarked) [TBECH, 1,2-dibromo-4-(1,2 dibromoethyl)cyclohexane]
[10]
  mutagenicity: mutagenic

## Clc1cc2c(cc1Cl)Oc1cc(Cl)c(Cl)cc1O2 [TCDD, 2,3,7,8-tetrachlorodibenzo-p-dioxin, reference compound]
ER [4]; ref Viswanath et al. (2008)
  ER RBA: < 0.0002 ^g %
ER [6]; ref Viswanath et al. (2008)
  ER RAF: 0.00012 ^g %
AR [11]
  AR RAF: < 0.0013 ^g %
AhR [12]
  AhR RAF: 100%
AR [5]; ref Viswanath et al. (2008)
  AR RBA: 0.0013 ^g %
AhR [13]
  EC50: 0.0488 nM
AhR [14]
  AhR RBA: 100%
AhR [15]
  IC50: 0.064 nM

## C[C@]12CC[C@H]3[C@@H](CCC4=CC(=O)CC[C@@]43C)[C@@H]1CC[C@@H]2O [Testosterone, testosterone]
HepG2 cells
  reduction of hormone by metabolism: 82%

## C=CC1(C)OC(=O)N(c2cc(Cl)cc(Cl)c2)C1=O (centres unmarked) [Vinclozolin]
ER [4]; ref Blair et al. (2000)
  ER RBA: < 0.0009 ^a %
AR [11]
  AR RAF: 0.0126 ^g %
AR [5]; ref Fang et al. (2003)
  AR RBA: 0.0023 ^f %

## O=C1c2ccccc2-c2cccc3cccc1c23 [benzoanthrone]
[1]
  agonism to hAR: weak agonists

## Clc1ccc(C(c2ccccc2Cl)C(Cl)(Cl)Cl)cc1 (centres unmarked) [o,p′-DDT]
ER [4]; ref Blair et al. (2000)
  ER RBA: 0.0014 ^a %
ER [6]; ref Legler et al. (1999)
  ER RAF: 0.0009 ^e %
AR [11]
  AR RAF: 0.0126 ^g %
AR [5]; ref Fang et al. (2003)
  AR RBA: 0.0149 ^f %

## Nonylphenol
ER [4]; ref Blair et al. (2000)
  ER RBA: 0.037 ^a %
ER [6]; ref Pillon et al. (2005)
  ER RAF: 0.00016 ^b %
AhR [9]; [18]
  AhR RAF: 0.0003 ^d %
AR [5]; ref Scippo et al. (2004)
  AR RBA: 0.0523 ^c %
